Several values for one entry are separate records, joined by “and”; a condition that tells them apart may be missing. Equal values may be shown once. Read-outs that look alike come from different tables or passages of the source.
Experiment: Toxicokinetic study of AAI after single oral administration (plasma, UPLC-QQQ-MS/MS, NCA)
Assay type: in vivo, F344 rats
Settings: for tmax: read-out: tmax
Procedure: For toxicokinetic study, forty-eight […] F344 rats (specific pathogen-free grade) were enrolled in the study, with equal numbers of males and females. All rats were purchased from Charles River Laboratory (Raleigh, NC, USA). All rats were confirmed to be healthy based on a series of physical health examinations. Rats were acclimated for 5 days at a temperature of 20–26 °C, humidity of 40–70% and a 12 h light/dark circle. The rats were randomly divided into four groups (n = 12 per group), with equal numbers of males and females in each group. The allocation was performed separately for each sex (female and male) based on body weight using a stratified randomization method. During the experiment, rats were fasted and had access to water ad libitum. To minimize confounding factors, treatments and measurements were randomized within each session. Cages from different groups were evenly distributed across racks in the same room to reduce bias from light and temperature. This study was approved by the Institutional Animal Care and Use Committee (IACUC) of the National Drug Safety Evaluation Center (Approval No. IACUC-2024-K011, 20 September 2024).
During the experiment, each rat received a single oral administration via gastric gavage. Rats in the control group were administered with 0.5% sodium carboxymethyl cellulose (CMC-Na) suspension. For the treatment groups, rats were administered with gavage solution containing 10, 30 and 100 mg/kg of AAI. The gavage solution was prepared by uniformly dispersing the reference standard of AAI in the 0.5% CMC-Na solution. After oral administration, blood samples were collected from the postorbital vein plex of rats and immediately placed in EDTA tubes. To capture potential reabsorption which might occur long after AAI administration, 15 blood sampling time points were established for each dose group. A sparse sampling approach was employed to avoid excessive blood loss in each rat. For each dosage, 12 rats were subdivided into two groups. For the first group, blood samples were collected from 6 rats at 10, 30, 60, 90, 120, 240, 420, and 600 min after AAI administration; for the second group, blood samples were collected from these 6 rats at 12, 14, 16, 18, 20, 22, and 24 h after AAI administration. Therefore, the experimental design ensured that six biological replicates were obtained for each sampling time point, enabling robust toxicokinetic analysis.
Rat plasma samples were prepared as follows: Blood was centrifuged at 13,200 rpm for 10 min. Then, 25 μL of retrieved plasma was transferred to 2 mL centrifuge tubes, followed by the addition of 75 μL of methanol/acetonitrile solution (v/v, 1∶1) containing indomethacin as internal standard (IS). After vortexing for 2 min and centrifugation for 10 min at 13,200 rpm, the supernatant was used as study samples for quantitative analysis. Quality control samples (QCs) and calibration standards were prepared by spiking blank plasma with different concentrations of AAI standard solution. The QCs and calibration standards were processed using identical procedures as the study samples.
A method of ultra-performance liquid chromatography coupled with triple quadrupole tandem mass spectrometry (UPLC-QQQ-MS/MS) was developed to achieve the quantitation of AAI in rat plasma. The LC-MS/MS analysis was performed using an Acquity UPLC I-Class system coupled with an Xevo TQ XS spectrometer (Waters, Milford, MA, USA). An Acquity UPLC BEH C18 column (2.1 mm × 50 mm, 1.7 μm, Waters, Milford, MA, USA) was employed for chromatographic separation. The mobile phases consisted of water containing 5 mmol/L ammonium formate/0.1% formic acid (A) and acetonitrile (B). The gradient elution was set as follows: 1–4 min, 10–90% B; 4–5 min, 90% B; 5–5.01 min, 90–10% B; 5.01–7 min, 10% B. The flow rate was set at 0.4 mL/min. The column temperature was maintained at 40 °C. A sample volume of 2 μL was injected for analysis. […]

[1] = 10 mg/kg single oral, rat plasma, mean ± SD
[2] = 30 mg/kg single oral, rat plasma, mean ± SD
[3] = 100 mg/kg single oral, rat plasma, mean ± SD
[4] = both sexes, F344, rat, plasma, po, 10 mg/kg, 10 mg/kg single oral, rat plasma, mean ± SD
[5] = both sexes, F344, rat, plasma, po, 30 mg/kg, 30 mg/kg single oral, rat plasma, mean ± SD
[6] = both sexes, F344, rat, plasma, po, 30 mg/kg, medium-dose (30 mg/kg), individual pooled profiles (animal pairs), Table S4
[7] = both sexes, F344, rat, plasma, po, 100 mg/kg, 100 mg/kg single oral, rat plasma, mean ± SD
[8] = high-dose (100 mg/kg), individual pooled profiles (animal pairs), Table S4, 100 mg/kg

Work on `COc1cccc2c1cc([N+](=O)[O-])c1c(C(=O)O)cc3c(c12)OCO3` [AAI, Aristolochic acid I] yielded a CL/F [1] of 1.66 ± 0.37 L/h, a Vd [1] of 3.36 ± 1.97 L and a CL/F [2] of 1.22 ± 0.30 L/h. For the same molecule, the Vd [2] was 4.67 ± 0.81 L, the CL/F [3] was 1.13 ± 0.59 L/h and the Vd [3] was 8.42 ± 7.24 L. For the same molecule, the AUC(0-t) (F344, rat, plasma, po, 10 mg/kg, low-dose (10 mg/kg), individual pooled profiles (animal pairs), Table S4) was 0.843 µg·h/mL, the Cmax (F344, rat, plasma, po, 10 mg/kg, low-dose (10 mg/kg), individual pooled profiles (animal pairs), Table S4, read-out: Cmax) was 0.562 µg/mL and the AUC(0-t) [4] was 0.969 ± 0.14 µg·h/mL. The half-life [4] was 1.31 ± 0.51 h, the Cmax (both sexes, F344, rat, plasma, po, 10 mg/kg, 10 mg/kg single oral, rat plasma, mean ± SD, read-out: Cmax) was 0.457 ± 0.129 µg/mL and the tmax [4] was 0.69 ± 0.6 h. For the same molecule, the concentration at 14 h (both sexes, F344, rat, plasma, po, 10 mg/kg, low-dose (10 mg/kg oral), 14 h, individual rats M104,M105,M106,F104,F105,F106, below LLOQ set to zero) was 0 µg/mL, the concentration at 16 h (both sexes, F344, rat, plasma, po, 10 mg/kg, low-dose (10 mg/kg oral), 16 h, individual rats M104,M105,M106,F104,F105,F106, below LLOQ set to zero) was 0 µg/mL and the concentration at 18 h (both sexes, F344, rat, plasma, po, 10 mg/kg, low-dose (10 mg/kg oral), 18 h, individual rats M104,M105,M106,F104,F105,F106, below LLOQ set to zero) was 0 µg/mL. It also gave a concentration at 20 h (both sexes, F344, rat, plasma, po, 10 mg/kg, low-dose (10 mg/kg oral), 20 h, individual rats M104,M105,M106,F104,F105,F106, below LLOQ set to zero) of 0 µg/mL, a concentration at 22 h (both sexes, F344, rat, plasma, po, 10 mg/kg, low-dose (10 mg/kg oral), 22 h, individual rats M104,M105,M106,F104,F105,F106, below LLOQ set to zero) of 0 µg/mL and a concentration at 24 h (both sexes, F344, rat, plasma, po, 10 mg/kg, low-dose (10 mg/kg oral), 24 h, individual rats M104,M105,M106,F104,F105,F106, below LLOQ set to zero) of 0 µg/mL. It also gave an AUC(0-t) (both sexes, F344, rat, plasma, po, 10 mg/kg, low-dose (10 mg/kg), individual pooled profiles (animal pairs), Table S4) of 0.825 µg·h/mL, an AUC(0-t) [5] of 3.95 ± 0.543 µg·h/mL and a half-life [5] of 2.79 ± 0.74 h. It also gave a Cmax (both sexes, F344, rat, plasma, po, 30 mg/kg, 30 mg/kg single oral, rat plasma, mean ± SD, read-out: Cmax) of 2.45 ± 0.561 µg/mL, a tmax [5] of 0.58 ± 0.17 h and a concentration at 1.5 h (both sexes, F344, rat, plasma, po, 30 mg/kg, medium-dose (30 mg/kg oral), 1.5 h, individual rats M201,M202,M203,F201,F202,F203) of 0.413 µg/mL. It also gave an AUC(0-t) [6] of 3.45 µg·h/mL, a tmax [6] of 0.5 h and an AUC(0-t) [7] of 17.1 µg·h/mL. The half-life [7] was 3.01 ± 0.45 h, the Cmax (both sexes, F344, rat, plasma, po, 100 mg/kg, 100 mg/kg single oral, rat plasma, mean ± SD, read-out: Cmax) was 9.11 ± 2.18 µg/mL and the tmax [7] was 1.17 ± 0.37 h. For the same molecule, the Cmax (both sexes, F344, rat, plasma, po, 100 mg/kg, high-dose (100 mg/kg), individual pooled profiles (animal pairs), Table S4, read-out: Cmax) was 9.01 µg/mL, the tmax (both sexes, F344, rat, plasma, po, 100 mg/kg, high-dose (100 mg/kg), individual pooled profiles (animal pairs), Table S4) was 2 h and the “secondary elevation of plasma AAI concentration, time post-administration” value (high- and medium-dose groups (100, 30 mg/kg oral)) was 14 to 24 h. The AUC0→t [8] was 17.48411 µg·h/mL and 17.26039 µg·h/mL and 32.1358 µg·h/mL and 9.26246 µg·h/mL and 9.69881 µg·h/mL and 16.82121 µg·h/mL, the CL/F [8] was 0.76 L/h and 0.74 L/h and 0.40 L/h and 2.04 L/h and 1.79 L/h and 1.07 L/h and the Cmax [8] was 9.98023 µg/mL and 12.3516 µg/mL and 6.49096 µg/mL and 6.24589 µg/mL and 10.56314 µg/mL. For the same molecule, the Vd [8] was 23.01 L and 3.33 L and 1.48 L and 11.28 L and 7.23 L and 4.20 L.
